Key:
EP2 [1] = biological target: T1, EP2 (Homo sapiens, UniProt P43116); assay: EP2 flipr; assay type: cell-based
Source text: (§1) U.S. patent application Ser. No. 11/553,143, filed on Oct. 26, 2006, incorporated by reference herein in its entirety, describes the methods used to obtain the in vitro data in the table below.

EP2 [2] = biological target: T1, EP2; assay: EP2 cAMP; assay type: cell-based
Source text: as §1

EP2 [3] = biological target: T1, EP2; assay: EP2 binding Ki
Source text: as §1

EP4 [4] = biological target: T2, EP4 (Homo sapiens, UniProt P35408); assay: EP4 flipr; assay type: cell-based
Source text: as §1

EP4 [5] = biological target: T2, EP4; assay: EP4 binding Ki
Source text: as §1

hEP3A = biological target: T3, hEP3A (Homo sapiens, UniProt P43115); assay: Other receptors hEP3A; assay type: cell-based
T3 sequence (P43115 1-390): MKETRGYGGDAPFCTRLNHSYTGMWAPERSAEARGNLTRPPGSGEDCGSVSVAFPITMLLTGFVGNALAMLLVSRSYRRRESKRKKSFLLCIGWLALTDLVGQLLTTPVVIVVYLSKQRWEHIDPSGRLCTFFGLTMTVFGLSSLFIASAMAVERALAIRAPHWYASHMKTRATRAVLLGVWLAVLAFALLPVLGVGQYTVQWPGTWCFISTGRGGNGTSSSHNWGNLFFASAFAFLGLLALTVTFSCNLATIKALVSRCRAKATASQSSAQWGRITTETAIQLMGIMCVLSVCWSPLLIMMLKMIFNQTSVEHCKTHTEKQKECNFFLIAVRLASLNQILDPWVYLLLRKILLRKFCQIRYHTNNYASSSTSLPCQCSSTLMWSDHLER
Source text: as §1

T1 sequence (P43116 whole entry): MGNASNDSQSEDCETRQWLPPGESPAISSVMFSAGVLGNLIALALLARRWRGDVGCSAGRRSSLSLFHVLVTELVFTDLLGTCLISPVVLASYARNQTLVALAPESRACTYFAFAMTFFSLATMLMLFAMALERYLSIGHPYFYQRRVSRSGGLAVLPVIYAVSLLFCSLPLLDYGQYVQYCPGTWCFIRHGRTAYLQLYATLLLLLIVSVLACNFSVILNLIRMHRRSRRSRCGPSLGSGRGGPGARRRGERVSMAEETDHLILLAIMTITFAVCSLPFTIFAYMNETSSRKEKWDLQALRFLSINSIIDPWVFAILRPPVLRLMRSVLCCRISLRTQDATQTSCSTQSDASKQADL
T2 sequence (P35408 whole entry): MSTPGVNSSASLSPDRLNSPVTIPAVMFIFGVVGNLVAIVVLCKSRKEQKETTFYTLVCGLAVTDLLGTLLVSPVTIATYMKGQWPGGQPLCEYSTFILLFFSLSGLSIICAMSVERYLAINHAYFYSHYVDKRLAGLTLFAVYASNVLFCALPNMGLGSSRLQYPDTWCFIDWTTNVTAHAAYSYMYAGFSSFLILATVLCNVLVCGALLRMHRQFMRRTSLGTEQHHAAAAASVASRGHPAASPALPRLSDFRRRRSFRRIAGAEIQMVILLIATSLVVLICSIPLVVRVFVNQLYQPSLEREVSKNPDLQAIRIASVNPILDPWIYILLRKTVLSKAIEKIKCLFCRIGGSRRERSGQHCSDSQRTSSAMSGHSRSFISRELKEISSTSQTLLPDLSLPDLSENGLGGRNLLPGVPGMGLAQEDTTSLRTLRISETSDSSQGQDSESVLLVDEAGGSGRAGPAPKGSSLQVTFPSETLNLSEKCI

SMILES | EC50 (EP2 [1]) [nM] | EC50 (EP2 [2]) [nM] | Ki (EP2 [3]) [nM] | EC50 (EP4 [4]) [nM] | Ki (EP4 [5]) [nM] | EC50 (hEP3A) [nM]
O=C(O)c1ccc(CCC[C@@H]2C(=O)C[C@@H](O)[C@@H]2C#Cc2ccccc2)s1 [Example 18, 5-(3-((1S,2S,3R)-3-hydroxy-5-oxo-2-(phenylethynyl)cyclopentyl)propyl)thiophene-2-carboxylic acid] | 22 | 0.6 | 30 | 3220 | 1790 | –
O=C(O)c1ccc(CCC[C@@H]2[C@@H](C#Cc3ccccc3)[C@H](O)C[C@H]2F)s1 [Example 19, 5-(3-((1R,2S,3R,5R)-5-fluoro-3-hydroxy-2-(phenylethynyl)cyclopentyl)propyl)thiophene-2-carboxylic acid] | 349 | 0.23 | 4 | 26600 | 1020 | > 10000
N#C[C@@H]1C[C@@H](O)[C@H](C#Cc2ccccc2)[C@H]1CCCc1ccc(C(=O)O)s1 [Example 22, 5-(3-((1S,2S,3R,5R)-5-cyano-3-hydroxy-2-(phenylethynyl)cyclopentyl)propyl)thiophene-2-carboxylic acid] | 235 | 0.18 | 13 | 21200 | 587 | > 10000
O=C(O)c1ccc(CCC[C@@H]2[C@@H](C#Cc3cc(Cl)cc(Cl)c3)[C@H](O)C[C@H]2Cl)s1 [Example 25, 5-(3-((1R,2S,3R,5R)-5-chloro-2-((3,5-dichlorophenyl)ethynyl)-3-hydroxycyclopentyl)propyl)thiophene-2-carboxylic acid] | 133 | 0.09 | < 0.08 | 1910 | 466 | –
CCc1cccc(C#C[C@@H]2[C@@H](CCCc3ccc(C(=O)O)s3)[C@H](Cl)C[C@H]2O)c1 [Example 26, 5-(3-((1R,2S,3R,5R)-5-chloro-2-((3-ethylphenyl)ethynyl)-3-hydroxycyclopentyl)propyl)thiophene-2-carboxylic acid] | 56 | 0.08 | 0.3 | 616 | 316 | –
C=CCCc1cccc(C#C[C@@H]2[C@@H](CCCc3ccc(C(=O)O)s3)[C@H](Cl)C[C@H]2O)c1 [Example 27, 5-(3-((1R,2S,3R,5R)-2-((3-(but-3-enyl)phenyl)ethynyl)-5-chloro-3-hydroxycyclopentyl)propyl)thiophene-2-carboxylic acid] | 19 | 0.03 | 1 | 11000 | 436 | –
O=C(O)c1ccc(CCC[C@@H]2[C@@H](C#Cc3ccsc3)[C@H](O)C[C@H]2Cl)s1 [Example 29, 5-(3-((1R,2S,3R,5R)-5-chloro-3-hydroxy-2-(thiophen-3-ylethynyl)cyclopentyl)propyl)thiophene-2-carboxylic acid] | – | 3.3 | 64 | 5910 | 1870 | –
O=C(O)c1ccc(CCC[C@@H]2[C@@H](C#Cc3ccccn3)[C@H](O)C[C@H]2Cl)s1 [Example 30, 5-(3-((1R,2S,3R,5R)-5-chloro-3-hydroxy-2-(pyridin-2-ylethynyl)cyclopentyl)propyl)thiophene-2-carboxylic acid] | 3 | 0.2 | 11 | > 10000 | 2140 | –
O=C(O)c1ccc(CCC[C@@H]2[C@@H](C#Cc3cccnc3)[C@H](O)C[C@H]2Cl)s1 [Example 31, 5-(3-((1R,2S,3R,5R)-5-chloro-3-hydroxy-2-(pyridin-3-ylethynyl)cyclopentyl)propyl)thiophene-2-carboxylic acid] | 2 | 0.3 | 4 | 4200 | 1440 | –
O=C(O)c1ccc(CCC[C@@H]2[C@@H](C#Cc3ccncc3)[C@H](O)C[C@H]2Cl)s1 [Example 32, 5-(3-((1R,2S,3R,5R)-5-chloro-3-hydroxy-2-(pyridin-4-ylethynyl)cyclopentyl)propyl)thiophene-2-carboxylic acid] | 306 | 7 | 79 | > 10000 | 8670 | –
O=C(O)c1ccc(CCC[C@@H]2[C@@H](C#Cc3cccc(CCCO)c3)[C@H](O)C[C@H]2Cl)s1 [Example 33, 5-(3-((1R,2S,3R,5R)-5-chloro-3-hydroxy-2-((3-(3-hydroxypropyl)phenyl)ethynyl)cyclopentyl)propyl)thiophene-2-carboxylic acid] | – | 0.22 | 2 | 8990 | 1520 | –

Reference: patent US9765065B2, “Therapeutic substituted cyclopentanes” (ALLERGAN, INC., priority 2007, dated 2017)
